According to patent US20090215896A1, “REELIN DEFICIENCY OR DYSFUNCTION AND METHODS RELATED THERETO” (MARTEK BIOSCIENCES CORPORATION, priority 2004, published 2009):

Tested on: Reelin-deficient mice (B6C3Fe a/a-Reln<rl>/J)
Assay: Reelin feeding study: number of offspring with reeler phenotype per diet group
Assay type: in vivo
Settings: DHA to pregnant and lactating dam and to pups after weaning, vs DHA Deficient Diet; P=0.04
Text: In the following experiment, the inventors tested whether LC-PUFA dietary enrichment (DHA) for mice lacking one or more normal reelin genes will correct Reelin histopathology/symptoms and will normalize the fatty acid profiles observed in Reelin-deficient mice. Specifically, the inventors evaluated whether dietary enrichment of long-chain polyunsaturated fatty acids (DHA) will correct or modulate Reelin histopathology/symptoms in Reelin-deficient mice.
Materials and Methods: The Reelin feeding study was sponsored by Martek Biosciences Corporation and initiated at Jackson Labs, Bar Harbor, Me. (Stock used: 300235 B6C3Fe a/a-Reln/J). Heterozygous females were mated with heterozygous males and received one of two experimental diets: a DHA DEFICIENT DIET (0% DHA by weight; 0.14% alpha linolenic acid by weight), or a DHA ADEQUATE DIET (0.462% DHA by weight, with 0.115% alpha linolenic acid by weight). The females continued to receive the specific diet throughout pregnancy and lactation. Homozygous, heterozygous, and wild-type pups born to pregnant females were placed on the same specific maternal diet at weaning. The number of reeler mice was recorded within each diet group. […] Pups were sacrificed at between 8 and 14 weeks of age and tissues were collected for fatty acid analysis.

In the case of CCC=CCC=CCC=CCC=CCC=CCC=CCCC(=O)O [DHA, 4,7,10,13,16,19-docosahexaenoic acid], the “reduction of the incidence of male reeler animals” value is reported as about 3 fold.
